# In patent US20240400647A1, “Biologically Active Collagen Hybridizing Peptides” (3HELIX, INC., priority 2021, published 2024):
# Test system: IMR-90 human lung fibroblasts
# Assay: IMR-90 fibroblast culture with peptides, gelatin or collagen added to media
# Assay type: cell-based
# Details: 30 μg/mL added to media, imaged after three days at 37° C.
# Description: IMR-90 human lung fibroblasts were purchased from ITCC. Cells were thawed and cultured in EMEM supplemented with 10% FBS and 1% Pen-Strep. Cells were cultured to 80-95% confluency then sub-cultured for three passages prior to utilization in experiments.
# Experimental wells were prepared by adding 100 μL cell media to wells of a 96-well gelatin coated plate (corning) or 300 μL media to the wells of a 48-well uncoated cell culture plate. Peptides, as listed below, were added to each well (5 μL to 96 well plates, 10 μL to 48 well plates).
# During passaging, cells were quantified, and 2100 IMR-90 cells were added to each well of the 96 well gelatin-coated plate. For the uncoated plate IMR-90 cells were added to each well. Additional media was added to bring the volume to 200 μL (96 well) or 500 μL (48 well). Cells were cultured at 37° C., 5% CO2 for three days then imaged. […] Media was added one day later (day 4) then allowed to culture an additional 2 days before imaging and lysing cells. qPCR was performed on cell lysate following cDNA synthesis (cell-to-CT kit, Thermo Fisher scientific).
row,Substance,confluence and directionality of cell growth
1,gelatin,higher confluence and more directionality in cell growth
2,collagen,higher confluence and more directionality in cell growth
